Measurements from PubChem BioAssay (NCI).
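Briefly, cells in 96-well plates were exposed to five compound concentrations for 48 h, and endpoints were estimated by linear interpolation. TGI marks complete inhibition of growth.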

How the values were obtained:
Test in all cases: growth of human tumour cells (NCI), 48 h
HS 578T breast = tested on: HS 578T breast
SK-MEL-2 melanoma = tested on: SK-MEL-2 melanoma
IGROV1 ovarian = tested on: IGROV1 ovarian
T-47D breast = tested on: T-47D breast
SNB-75 CNS = tested on: SNB-75 CNS
NCI-H460 lung = tested on: NCI-H460 lung
TK-10 renal = tested on: TK-10 renal
RXF 393 renal = tested on: RXF 393 renal
MDA-N = tested on: MDA-N
OVCAR-4 ovarian = tested on: OVCAR-4 ovarian
CAKI-1 renal = tested on: CAKI-1 renal

SMILES | TGI (HS 578T breast) [µM] | TGI (SK-MEL-2 melanoma) [µM] | TGI (IGROV1 ovarian) [µM] | TGI (T-47D breast) [µM] | TGI (SNB-75 CNS) [µM] | TGI (NCI-H460 lung) [µM] | TGI (TK-10 renal) [µM] | TGI (RXF 393 renal) [µM] | TGI (MDA-N) [µM] | TGI (OVCAR-4 ovarian) [µM] | TGI (CAKI-1 renal) [µM]
Nc1ccc(N=Nc2c(S(=O)(=O)O)cc3ccccc3c2S(=O)(=O)O)cc1 | > 100 | > 100 | > 100 | > 100 | > 100 | > 100 | > 100 | > 100 | > 100 | > 100 | > 100
O=C(/C=C/c1ccccc1)Oc1ccc(C(=O)/C=C/c2ccccc2)cc1 | 69.4 | > 66.1 | 17.9 | 15.6 | 19.8 | 18.8 | 20.8 | > 60.6 | 12.6 | 55.5 | 19.8
O=C(O)c1ccccc1CC(Cc1ccc2c(c1)CCC2)C(=O)O (stereo not given) | > 100 | > 100 | > 100 | > 100 | > 100 | > 100 | > 100 | > 100 | > 100 | > 100 | > 100
N[C@@H](Cc1ccccc1)C(=O)N1CCC[C@@H]1P(=O)(Oc1ccccc1)Oc1ccccc1 | > 100 | > 100 | > 100 | > 100 | > 100 | > 100 | > 100 | > 100 | > 100 | > 100 | > 100
O=C(CCn1ccnc1[N+](=O)[O-])NCCCn1ccnc1[N+](=O)[O-] | > 100 | > 100 | > 100 | > 100 | > 100 | > 100 | > 100 | > 100 | > 100 | > 100 | > 100
CN1CCOC1c1ccccc1O (stereo not given) | > 100 | > 100 | > 100 | > 100 | > 100 | > 100 | > 100 | > 100 | > 100 | > 100 | > 100
O=[N+]([O-])C(=C(Nc1ccccc1)Nc1ccccc1)C(Cl)=C(Cl)Cl | 55.5 | 28.3 | 27.2 | 50.9 | 36.5 | 33 | 38 | 31.8 | 27.2 | 24.8 | 33.4
N#CC(C#N)=C1SC(=Nc2ccccc2)C(=Nc2ccccc2)N1c1ccccc1 | > 93 | 44.3 | 28.9 | 18 | > 100 | > 31.6 | > 100 | 45.5 | 37.8 | 34.8 | > 56.3
C[C@H](CCC(=O)O)[C@H]1CC[C@H]2[C@@H]3C(=O)C[C@@H]4C[C@H](O)CC[C@]4(C)[C@H]3C[C@H](O)[C@]12C | 78.9 | > 100 | > 100 | > 100 | > 100 | > 100 | > 100 | > 100 | > 100 | > 100 | > 100
Cc1cc(/N=C/c2ccc(N(C)C)cc2)n(-c2ccccc2)n1 | > 100 | > 100 | > 100 | 89.5 | > 100 | > 100 | > 100 | > 100 | > 100 | > 100 | > 100
